Reference: PubChem BioAssay (NCI)
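Grown in 96-well plates, cells were treated for 48 hours with each compound at five concentrations. Insufficient inhibition: endpoint recorded as highest concentration tested. At the GI50, growth is halved. At the TGI there is no net growth.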

Key:
Experiment in all cases: NCI anticancer screen, dose series, 48 h
SK-MEL-28 melanoma = tested on: SK-MEL-28 melanoma
UO-31 renal = tested on: UO-31 renal
SK-MEL-5 melanoma = tested on: SK-MEL-5 melanoma
M14 melanoma = tested on: M14 melanoma
SK-MEL-2 melanoma = tested on: SK-MEL-2 melanoma
HOP-92 NSCLC = tested on: HOP-92 NSCLC
RXF 393 renal = tested on: RXF 393 renal
LOX IMVI melanoma = tested on: LOX IMVI melanoma
786-0 renal = tested on: 786-0 renal
K-562 leukemia = tested on: K-562 leukemia
SF-295 CNS = tested on: SF-295 CNS
UACC-257 melanoma = tested on: UACC-257 melanoma
U251 CNS = tested on: U251 CNS
MALME-3M melanoma = tested on: MALME-3M melanoma
TK-10 renal = tested on: TK-10 renal
RPMI-8226 leukemia = tested on: RPMI-8226 leukemia
SF-539 CNS = tested on: SF-539 CNS
MDA-MB-231 breast = tested on: MDA-MB-231 breast
NCI-H226 lung = tested on: NCI-H226 lung
HOP-62 NSCLC = tested on: HOP-62 NSCLC
HCT-116 colon = tested on: HCT-116 colon
HT29 colon = tested on: HT29 colon
KM12 colon = tested on: KM12 colon
BT-549 breast = tested on: BT-549 breast
NCI/ADR-RES ovarian = tested on: NCI/ADR-RES ovarian
SW-620 colon = tested on: SW-620 colon
T-47D breast = tested on: T-47D breast
A498 renal = tested on: A498 renal
MOLT-4 leukemia = tested on: MOLT-4 leukemia
SK-OV-3 ovarian = tested on: SK-OV-3 ovarian
MCF7 breast = tested on: MCF7 breast
IGROV1 ovarian = tested on: IGROV1 ovarian
OVCAR-5 ovarian = tested on: OVCAR-5 ovarian
SR leukemia = tested on: SR leukemia
CAKI-1 renal = tested on: CAKI-1 renal
NCI-H522 lung = tested on: NCI-H522 lung
EKVX NSCLC = tested on: EKVX NSCLC
DU-145 prostate = tested on: DU-145 prostate
UACC-62 melanoma = tested on: UACC-62 melanoma
HCC-2998 colon = tested on: HCC-2998 colon
HL-60(TB) leukemia = tested on: HL-60(TB) leukemia
OVCAR-8 ovarian = tested on: OVCAR-8 ovarian
HCT-15 colon = tested on: HCT-15 colon
OVCAR-3 ovarian = tested on: OVCAR-3 ovarian
SF-268 CNS = tested on: SF-268 CNS
OVCAR-4 ovarian = tested on: OVCAR-4 ovarian
NCI-H23 lung = tested on: NCI-H23 lung
HS 578T breast = tested on: HS 578T breast
A549 NSCLC = tested on: A549 NSCLC
MDA-MB-435 = tested on: MDA-MB-435
SN12C renal = tested on: SN12C renal
COLO 205 colon = tested on: COLO 205 colon
ACHN renal = tested on: ACHN renal
NCI-H460 lung = tested on: NCI-H460 lung
SNB-19 CNS = tested on: SNB-19 CNS

## O=C(Nc1ccc2cc3ccc(NC(=O)N4CCCCCC4)cc3nc2c1)N1CCCCCC1
SK-MEL-28 melanoma
  GI50: 1.32 µM
  TGI: 2.67 µM
UO-31 renal
  GI50: 1.66 µM
  TGI: 3.04 µM
SK-MEL-5 melanoma
  GI50: 1.48 µM
  TGI: 2.81 µM
M14 melanoma
  GI50: 1.32 µM
  TGI: 2.78 µM
SK-MEL-2 melanoma
  GI50: 1.62 µM
  TGI: 3.14 µM
HOP-92 NSCLC
  GI50: 1.57 µM
  TGI: 3.28 µM
RXF 393 renal
  GI50: 0.219 µM
  TGI: 0.505 µM
LOX IMVI melanoma
  GI50: 1.42 µM
  TGI: 2.75 µM
786-0 renal
  GI50: 0.344 µM
  TGI: 1.28 µM
K-562 leukemia
  GI50: 0.35 µM
  TGI: 1.23 µM
SF-295 CNS
  GI50: 0.783 µM
  TGI: 2.12 µM
UACC-257 melanoma
  GI50: 1.81 µM
  TGI: 3.36 µM
U251 CNS
  GI50: 0.534 µM
  TGI: 1.81 µM
MALME-3M melanoma
  GI50: 1.13 µM
  TGI: 2.53 µM
TK-10 renal
  GI50: 1.92 µM
  TGI: 3.46 µM
RPMI-8226 leukemia
  GI50: 0.315 µM
  TGI: 1.02 µM
SF-539 CNS
  GI50: 0.841 µM
  TGI: 2.09 µM

## c1cc2ccc3cc2cc1CNCCOCCNCc1ccc2ccc(cc2c1)CNCCOCCNC3
MDA-MB-231 breast
  GI50: > 100 µM
  TGI: > 100 µM
SK-MEL-28 melanoma
  GI50: > 100 µM
  TGI: > 100 µM
UO-31 renal
  GI50: > 100 µM
  TGI: > 100 µM
NCI-H226 lung
  GI50: > 100 µM
  TGI: > 100 µM
HOP-62 NSCLC
  GI50: > 100 µM
  TGI: > 100 µM
SK-MEL-5 melanoma
  GI50: > 100 µM
  TGI: > 100 µM
HCT-116 colon
  GI50: > 100 µM
  TGI: > 100 µM
HT29 colon
  GI50: > 100 µM
  TGI: > 100 µM
KM12 colon
  GI50: > 100 µM
  TGI: > 100 µM
BT-549 breast
  GI50: > 100 µM
  TGI: > 100 µM
NCI/ADR-RES ovarian
  GI50: > 100 µM
  TGI: > 100 µM
M14 melanoma
  GI50: > 100 µM
  TGI: > 100 µM
SW-620 colon
  GI50: > 100 µM
  TGI: > 100 µM
T-47D breast
  GI50: > 100 µM
  TGI: > 100 µM
A498 renal
  GI50: > 100 µM
  TGI: > 100 µM
MOLT-4 leukemia
  GI50: > 100 µM
  TGI: > 100 µM
SK-MEL-2 melanoma
  GI50: > 100 µM
  TGI: > 100 µM
SK-OV-3 ovarian
  GI50: > 100 µM
  TGI: > 100 µM
MCF7 breast
  GI50: > 100 µM
  TGI: > 100 µM
IGROV1 ovarian
  GI50: > 100 µM
  TGI: > 100 µM
RXF 393 renal
  GI50: > 100 µM
  TGI: > 100 µM
OVCAR-5 ovarian
  GI50: > 100 µM
  TGI: > 100 µM
SR leukemia
  GI50: > 100 µM
  TGI: > 100 µM
CAKI-1 renal
  GI50: > 100 µM
  TGI: > 100 µM
NCI-H522 lung
  GI50: > 100 µM
  TGI: > 100 µM
EKVX NSCLC
  GI50: > 100 µM
  TGI: > 100 µM
DU-145 prostate
  GI50: > 100 µM
  TGI: > 100 µM
UACC-62 melanoma
  GI50: > 100 µM
  TGI: > 100 µM
HCC-2998 colon
  GI50: > 100 µM
  TGI: > 100 µM
LOX IMVI melanoma
  GI50: > 100 µM
  TGI: > 100 µM
786-0 renal
  GI50: > 100 µM
  TGI: > 100 µM
HL-60(TB) leukemia
  GI50: > 100 µM
  TGI: > 100 µM
OVCAR-8 ovarian
  GI50: > 100 µM
  TGI: > 100 µM
HCT-15 colon
  GI50: > 100 µM
  TGI: > 100 µM
K-562 leukemia
  GI50: > 100 µM
  TGI: > 100 µM
OVCAR-3 ovarian
  GI50: > 100 µM
  TGI: > 100 µM
SF-295 CNS
  GI50: > 100 µM
  TGI: > 100 µM
SF-268 CNS
  GI50: > 100 µM
  TGI: > 100 µM
OVCAR-4 ovarian
  GI50: > 100 µM
  TGI: > 100 µM
UACC-257 melanoma
  GI50: > 100 µM
  TGI: > 100 µM
U251 CNS
  GI50: > 100 µM
  TGI: > 100 µM
NCI-H23 lung
  GI50: > 100 µM
  TGI: > 100 µM
HS 578T breast
  GI50: > 100 µM
  TGI: > 100 µM
A549 NSCLC
  GI50: > 100 µM
  TGI: > 100 µM
MALME-3M melanoma
  GI50: > 100 µM
  TGI: > 100 µM
MDA-MB-435
  GI50: > 100 µM
  TGI: > 100 µM
SN12C renal
  GI50: > 100 µM
  TGI: > 100 µM
COLO 205 colon
  GI50: > 100 µM
  TGI: > 100 µM
ACHN renal
  GI50: > 100 µM
  TGI: > 100 µM
TK-10 renal
  GI50: > 100 µM
  TGI: > 100 µM
NCI-H460 lung
  GI50: > 100 µM
  TGI: > 100 µM
SNB-19 CNS
  GI50: > 100 µM
  TGI: > 100 µM
SF-539 CNS
  GI50: > 100 µM
  TGI: > 100 µM
